Source: ChEMBL document CHEMBL1151935, “Improvement of pharmacological properties of irreversible thyroid receptor coactivator binding inhibitors” (J Med Chem, 2009)

test: in vitro; conditions: PAMPA, pH 7.4

Row | SMILES | Papp
1 | CCOCCOc1ccc(C(=O)CCN(C)C)cc1 | 160 ×10⁻⁶ cm/s
2 | CCCCCCOc1ccc(C(=O)CCNc2cccc(Cl)c2)cc1 | 2 ×10⁻⁶ cm/s
3 | CCCCCCS(=O)(=O)c1cc(C)c(C(=O)CCN2CCNC(=O)C2)c(C)c1 | 480 ×10⁻⁶ cm/s
4 | CCCCCCOc1ccc(C(=O)CCN(C)C)cc1Cc1ccccc1 | 230 ×10⁻⁶ cm/s
5 | CCCCCCOc1ccc2c(c1)OCC(CN(C)C)C2=O (configuration not stated) | 700 ×10⁻⁶ cm/s
6 | CCCCCCOc1ccc(C(=O)CCN2CCOCC2)c(Cl)c1Cl | 930 ×10⁻⁶ cm/s
7 | CCCCCCSc1cc(C)c(C(=O)CCN2CCN(S(=O)(=O)CC)CC2)c(C)c1 | 160 ×10⁻⁶ cm/s
8 | CCCCCCOc1ccc(C(=O)C(CN(C)C)c2ccccc2)cc1 (configuration not stated) | 910 ×10⁻⁶ cm/s
9 | CCCCCCS(=O)(=O)c1ccc(C(=O)CCN2CCN(C(C)=O)CC2)c(Cl)c1 | 360 ×10⁻⁶ cm/s
10 | CCCCCCOc1ccc(C(=O)CCNc2ccccc2)cc1 | 0.2 ×10⁻⁶ cm/s
11 | CCCCCCOc1cc(Cl)c(C(=O)CCN2CCOCC2)c(Cl)c1 | > 1 ×10⁻⁶ cm/s
12 | CCCCCCOc1ccc(C(=O)CCN(C)C)cc1OC | 950 ×10⁻⁶ cm/s
13 | CCN1CCC(Cc2ccc(C(=O)CCN(C)C)cc2)CC1 | 140 ×10⁻⁶ cm/s
14 | CCCCCCSc1ccc(C(=O)CCN2CCN(S(=O)(=O)CC)CC2)c(Cl)c1Cl | 30 ×10⁻⁶ cm/s
15 | CCCCCCOc1cccc(C(=O)CCN(C)C)c1 | 830 ×10⁻⁶ cm/s
16 | CCCCCCOc1cc(Cl)c(C(=O)CCN2CC2C)c(Cl)c1 (configuration not stated) | > 1 ×10⁻⁶ cm/s
17 | CCCCCCSc1ccc(C(=O)CCN2CCN(S(=O)(=O)CC)CC2)c(Cl)c1 | 740 ×10⁻⁶ cm/s
18 | CCCCCCOc1ccc(C(=O)CCN(C)C)cc1C(C)(C)C | 190 ×10⁻⁶ cm/s
19 | CCCCCCOc1ccc(C(=O)CCN(C)C)cc1F | 700 ×10⁻⁶ cm/s
20 | CCCCCCOc1ccc(C(=O)CCN(C)C)c2ccccc12 | 660 ×10⁻⁶ cm/s
21 | CCCCCCOc1ccc2c(c1)CCC(CN(C)C)C2=O (configuration not stated) | 710 ×10⁻⁶ cm/s
22 | CCCCCCSc1cc(Cl)c(C(=O)CCN2CC2C)cc1Cl (configuration not stated) | 140 ×10⁻⁶ cm/s
23 | CCCCCCOc1cc(C)c(C(=O)CCN2CC2C)c(C)c1 (configuration not stated) | 930 ×10⁻⁶ cm/s
24 | CCCCCCOc1cc(Cl)c(C(=O)CCN2CC2C)cc1Cl (configuration not stated) | 810 ×10⁻⁶ cm/s
25 | CCCCCCOc1ccc2c(c1)CC(CN(C)C)C2=O (configuration not stated) | 230 ×10⁻⁶ cm/s
26 | CCCCCCOc1ccc(C(=O)CCN2CCN(S(=O)(=O)CC)CC2)c(Cl)c1Cl | > 1 ×10⁻⁶ cm/s
27 | CCCCCCSc1cc(Cl)c(C(=O)CCN2CCOCC2)c(Cl)c1 | 10 ×10⁻⁶ cm/s

Row | SMILES | Papp
28 | CCCCCCOc1ccc(C(=O)CCN(C)C)c(C(F)(F)F)c1 | 500 ×10⁻⁶ cm/s
29 | CCCCCCS(=O)(=O)c1ccc(C(=O)CCN2CCN(S(=O)(=O)CC)CC2)c(Cl)c1Cl | 380 ×10⁻⁶ cm/s
30 | CCCCCCSc1cc(Cl)c(C(=O)CCN2CCN(S(=O)(=O)CC)CC2)c(Cl)c1 | 50 ×10⁻⁶ cm/s
31 | CCCCCC(=O)Nc1ccc(C(=O)CCN(C)C)cc1 | 560 ×10⁻⁶ cm/s
32 | CCCCCCSc1ccc(C(=O)CCN2CC2C)c(Cl)c1Cl (configuration not stated) | 70 ×10⁻⁶ cm/s
33 | CCCCCCSc1ccc(C(=O)CCN2CCOCC2)c(Cl)c1Cl | 170 ×10⁻⁶ cm/s
34 | CCCCCCSc1cc(Cl)c(C(=O)CCN2CCNC(=O)C2)cc1Cl | 810 ×10⁻⁶ cm/s
35 | CCCN1CCN(c2ccc(C(=O)CCN(C)C)cc2)CC1 | 320 ×10⁻⁶ cm/s
36 | CCCCCCOc1ccc(C(=O)CCN(C)C)cc1-c1ccccc1 | 830 ×10⁻⁶ cm/s
37 | CCCCNC(=O)Nc1ccc(C(=O)CCN(C)C)cc1 | 10 ×10⁻⁶ cm/s
38 | CCCCCCOc1ccc(C(=O)CCN(CCCC)CCCC)cc1 | 560 ×10⁻⁶ cm/s
39 | CCCCCCOc1ccc(C(=O)CCN(C)C)cc1C(F)(F)F | 930 ×10⁻⁶ cm/s
40 | CCCCCCOc1ccc(C(=O)CCN(C)C)cc1I | 540 ×10⁻⁶ cm/s
41 | CCCCCCSc1cc(Cl)c(C(=O)CCN2CC2C)c(Cl)c1 (configuration not stated) | 190 ×10⁻⁶ cm/s
42 | CCCCCCS(=O)(=O)c1ccc(C(=O)CCN2CC2C)c(Cl)c1 (configuration not stated) | 160 ×10⁻⁶ cm/s
43 | CCCCCCS(=O)(=O)c1ccc(C(=O)CCN2CCN(S(=O)(=O)CC)CC2)c(Cl)c1 | 300 ×10⁻⁶ cm/s
44 | CCCCCCNC(=O)c1ccc(C(=O)CCN(C)C)cc1 | 770 ×10⁻⁶ cm/s
45 | CCCCCCOc1ccc(C(=O)CCN2CC2C)c(Cl)c1Cl (configuration not stated) | 370 ×10⁻⁶ cm/s
46 | CCCCCCOc1ccc(-c2ccc(C(=O)CCN(C)C)cc2)cc1 | 150 ×10⁻⁶ cm/s
47 | CCCCCCS(=O)(=O)c1ccc(C(=O)CCN2CC2C)c(Cl)c1Cl (configuration not stated) | 440 ×10⁻⁶ cm/s
48 | CCCCCCSc1ccc(C(=O)CCN2CC2C)c(Cl)c1 (configuration not stated) | 500 ×10⁻⁶ cm/s
49 | CCCCCCS(=O)(=O)c1cc(C)c(C(=O)CCN2CCN(C(C)=O)CC2)c(C)c1 | 470 ×10⁻⁶ cm/s
50 | CCCCCCOc1cc(Cl)c(C(=O)CCN2CCN(S(=O)(=O)CC)CC2)c(Cl)c1 | 860 ×10⁻⁶ cm/s
51 | CCCCCCS(=O)(=O)c1cc(Cl)c(C(=O)CCN2CC2C)c(Cl)c1 (configuration not stated) | 980 ×10⁻⁶ cm/s
52 | CCCCCCOc1ccc(C(=O)CCN2CC2C)c(Cl)c1 (configuration not stated) | 870 ×10⁻⁶ cm/s
53 | CCCCCCS(=O)(=O)c1cc(Cl)c(C(=O)CCN2CC2C)cc1Cl (configuration not stated) | 260 ×10⁻⁶ cm/s
54 | CCCCCCSc1cc(C)c(C(=O)CCN2CC2C)c(C)c1 (configuration not stated) | 770 ×10⁻⁶ cm/s

Results, then the compound that gave them:

Row | Papp | SMILES
55 | 610 ×10⁻⁶ cm/s | CCCCCCSc1ccc(C(=O)CCN(C)C)c(Cl)c1
56 | 730 ×10⁻⁶ cm/s | CCCCCCOc1c(C)cc(C(=O)CCN(C)C)cc1C
57 | 650 ×10⁻⁶ cm/s | CCCCCCOc1cc(C)c(C(=O)CCN(C)C)c(C)c1
58 | 730 ×10⁻⁶ cm/s | CCCCCCOc1ccc(C(=O)CCN(C)C)cc1S(C)(=O)=O
59 | 220 ×10⁻⁶ cm/s | CCCCCCS(=O)(=O)c1ccc(C(=O)CCN(C)C)c(Cl)c1Cl
60 | 480 ×10⁻⁶ cm/s | CCCCCCS(=O)(=O)c1cc(Cl)c(C(=O)CCN2CCN(C(C)=O)CC2)c(Cl)c1
61 | 700 ×10⁻⁶ cm/s | CCCCCCOc1cc(Cl)c(C(=O)CCN(C)C)c(Cl)c1
62 | 380 ×10⁻⁶ cm/s | CCCCCCS(=O)(=O)c1ccc(C(=O)CCN(C)C)c(Cl)c1
63 | 760 ×10⁻⁶ cm/s | CCCCCCS(=O)(=O)c1ccc(C(=O)CCN2CCOCC2)c(Cl)c1
64 | 560 ×10⁻⁶ cm/s | CCCCCCS(=O)(=O)c1ccc(C(=O)CCN2CCOCC2)c(Cl)c1Cl
65 | 80 ×10⁻⁶ cm/s | CCCCCCOc1ccc(C(=O)CCN(C)C)c(Br)c1
66 | 170 ×10⁻⁶ cm/s | CCCCCCOc1ccc(C(=O)CCN(C)C)c(N(C)C)c1
67 | 50 ×10⁻⁶ cm/s | CCCCCS(=O)(=O)Nc1ccc(C(=O)CCN(C)C)cc1
68 | 850 ×10⁻⁶ cm/s | CCCCCCOc1ccc(C(=O)CCN(C)C)c(S(C)(=O)=O)c1
69 | 750 ×10⁻⁶ cm/s | CCCCCCOc1ccc(C(=O)CCN(C)C)c(C)c1
70 | 460 ×10⁻⁶ cm/s | CCCCCCOc1ccc(C(=O)CCN(C)C)cc1Br
71 | 330 ×10⁻⁶ cm/s | CCCCCCSc1cc(Cl)c(C(=O)CCN(C)C)cc1Cl

Row | Papp | SMILES
72 | 540 ×10⁻⁶ cm/s | CCCCCCS(=O)(=O)c1cc(Cl)c(C(=O)CCN2CCNC(=O)C2)cc1Cl
73 | 860 ×10⁻⁶ cm/s | CCCCCCOc1cc(C(C)C)c(C(=O)CCN(C)C)cc1C
74 | 780 ×10⁻⁶ cm/s | CCCCCCS(=O)(=O)c1ccc(C(=O)CCN(C)C)cc1
75 | 140 ×10⁻⁶ cm/s | CCCCCCSc1ccc(C(=O)CCN(C)C)c(Cl)c1Cl
76 | 20 ×10⁻⁶ cm/s | CCCCCCSc1cc(Cl)c(C(=O)CCN2CCN(S(=O)(=O)CC)CC2)cc1Cl
77 | 350 ×10⁻⁶ cm/s | CCCCCCSc1cc(Cl)c(C(=O)CCN(C)C)c(Cl)c1
78 | 170 ×10⁻⁶ cm/s | CCCCCCS(=O)(=O)c1cc(Cl)c(C(=O)CCN(C)C)c(Cl)c1
79 | 90 ×10⁻⁶ cm/s | CCCCCCS(=O)(=O)c1cc(Cl)c(C(=O)CCN(C)C)cc1Cl
80 | 680 ×10⁻⁶ cm/s | CCCCCCS(=O)(=O)c1cc(Cl)c(C(=O)CCN2CCOCC2)cc1Cl
81 | 770 ×10⁻⁶ cm/s | CCCCCCS(=O)(=O)c1ccc(C(=O)CCN2CCN(C(C)=O)CC2)c(Cl)c1Cl
82 | 670 ×10⁻⁶ cm/s | CCCCCCS(=O)(=O)c1cc(Cl)c(C(=O)CCN2CCN(C(C)=O)CC2)cc1Cl
83 | 730 ×10⁻⁶ cm/s | CCCCCCS(=O)(=O)c1cc(Cl)c(C(=O)CCN2CCN(S(=O)(=O)CC)CC2)cc1Cl
84 | 470 ×10⁻⁶ cm/s | CCCCCCS(=O)(=O)c1cc(Cl)c(C(=O)CCN2CCOCC2)c(Cl)c1
85 | 240 ×10⁻⁶ cm/s | CCCCCCS(=O)(=O)c1ccc(C(=O)CCN2CCNC(=O)C2)c(Cl)c1
86 | 430 ×10⁻⁶ cm/s | CCCCCCS(=O)(=O)c1cc(Cl)c(C(=O)CCN2CCNC(=O)C2)c(Cl)c1
87 | 270 ×10⁻⁶ cm/s | CCCCCCOc1ccc(C(=O)CCN(C)C)c(I)c1
